Test results: patent publication US20080318982A1, “Pharmaceutical Combination for the Treatment of Luts” (Pfizer, Inc., priority 2005, published 2008)

Tested on: Anaesthetized Guinea-pig
Assay: Filling cystometry in the anaesthetized guinea-pig (effects on lower urinary tract function)
Type: in vivo
Details: for % Change in Micturition Pressure / % Change in Threshold Volume: infused continuously for 60 min, vs baseline
Method: Animals: Female Hartley guinea pigs (body weight 300-350 grams).
Surgical procedure: The animals are anaesthetized with urethane (1.5 g/kg intraperitoneally) given as a divided dose of 80% initially and 20% 15 min later. Body temperature is maintained at 37±2° C. throughout the experiment. The bladder is exposed through a lower abdominal incision and a polyethylene catheter with a small cuff is inserted in the bladder dome and secured with a purse-string suture. The ureters are then ligatured. The bladder is replaced under the abdominal wall and the catheter is connected via a T-tube to a pressure transducer in order to measure intravesical pressure. The trachea is cannulated. The jugular vein is cannulated to allow administration of test compounds and the femoral artery is cannulated in order to collect plasma sample.
Cystometry: A series of filling cystometry cycles are performed throughout the experimental measurement period to establish baseline parameters and determine drug effect. Before each cystometry cycle, the bladder is emptied manually. Saline at room temperature is then infused continuously into the bladder via the catheter at a flow rate of 600 μL/min until a micturition occurs. The following micturition parameters are measured during each cystometry cycle: Micturition Pressure (MP, the pressure in the bladder during voiding) and Threshold Volume (ThV, volume at which micturition occurs, mL).
Evaluation of drug effect: After the determination of baseline parameters (mean of 3 micturition cycles), test substance or vehicle is administered continuously for 60 minutes. At the end of the drug infusion period, the effect of drug on cystometry parameters is determined by taking an average of the measurements made in two micturition cycles. For combination studies, the respective doses of the test compounds are infused together over a 60 min period following the measurement of baseline parameters.

| SMILES | % Change in Micturition Pressure (Oxybutynin 3.18 mg/kg) | % Change in Threshold Volume (Oxybutynin 3.18 mg/kg) | effect on micturition pressure (in words) (oxybutynin 3.18 mg/kg) | effect on micturition pressure (in words) (Compound A 0.11 mg/kg, 0.32 mg/kg) | % Change in Micturition Pressure (Compound A 0.11 mg/kg) [%] | % Change in Threshold Volume (Compound A 0.11 mg/kg) [%] | % Change in Micturition Pressure (Compound A 0.32 mg/kg) [%] | % Change in Threshold Volume (Compound A 0.32 mg/kg) |
| --- | --- | --- | --- | --- | --- | --- | --- | --- |
| CCN(CC)CC#CCOC(=O)C(O)(c1ccccc1)C1CCCCC1 (centres unmarked) [Oxybutynin, oxybutynin, reference compound] | +3.2% | +18.9% | small increase | – | – | – | – | – |
| CCCOc1ccc(S(=O)(=O)N2CCN(CC)CC2)cc1-c1nc2c(CC)nn(Cc3ccccn3)c2c(=O)[nH]1 [Compound A, 3-ethyl-5-[5-(4-ethylpiperazin-1-ylsulphonyl)-2-n-propoxyphenyl]-1-(pyridin-2-yl)methyl-1,6-dihydro-7H-pyrazolo[4,3-d]pyrimidin-7-one] | – | – | – | small reduction | −6.7 | −2.7 | −6 | +11.4% |
